Data reported in patent publication US20220356163A1, “SMALL MOLECULE INHIBITORS OF Id PROTEINS” (MEMORIAL SLOAN KETTERING CANCER CENTER, priority 2019, published 2022).

Experiments:
[1] = system: lung metastases; assay: LLC metastasis model; assay type: in vivo, mouse; details: daily ip
Protocol: Thirty C57BL/6 mice will be implanted with 7.5×10^5 LLC cancer cells/animal. Seven days after implantation, 5M/5F per group will be treated daily ip for 25 days with dosing vehicle (DMSO), AGX51, or a compound of the present technology (such as AGX-A). Fourteen days after implantation, another group of 5M/5F animals will be treated daily ip for 18 days with 50 mg/kg of AGX51 and another group of 5M/5F animals will be treated daily ip for 18 days with a compound of the present technology (such as AGX-A). Tumors will be measured three times from Day 7 to 14. On Day 14, the tumors will be excised. The animals will be necropsied for the presence of lung metastases on day 32, 18 days post excision.

[2] = biological target: T1, Id3 (Mus musculus, UniProt P41133); assay: Circular dichroism (CD) of Id3; assay type: binding; details: 0 or 100 μM
T1 construct: GST (cleaved yes); made in house; host or cells: E. coli Rosetta 2(DE3)
Protocol: Id protein purification. pGEV-PSP-mId1 and mId3 expression constructs were transformed into Rosetta 2(DE3) Competent Cells (Sigma Millipore) for protein expression. To produce recombinant GST-tagged protein, a 50 mL LB/Ampicillin (100 μg/m)+Chloramphenicol (25 μg/mL) culture was grown overnight at 37° C. Early the next day, the overnight culture was diluted 1:100 into 6 L LB/Ampicillin+Chloramphenicol and cultured at 37° C. for about four hours until OD600=0.7. Cultures were induced with 1 mM IPTG and incubated at 16° C. for 16-18 hours. Cells were harvested by centrifugation at 4000 rpm for 15 minutes at 4° C. and the pellet was resuspended in lysis buffer (50 mM Tris pH 8.0; 400 mM NaCl; 0.5 mM TCEP, Protease Inhibitor Cocktail) (25 mL/L of culture). To lyse the cells, Triton X-100 and lysozyme were added to 0.1% and 10 μg/mL respectively, incubated for 30 minutes on ice and sonicated. Lysates were spun at 17,000 rpm for 30 minutes at 4° C. and supernatants were filtered through a […] filter before incubation with glutathione sepharose for two hours at 4° C. The sepharose with bound protein was run through a polypropylene column and washed twice with 50 mL wash buffer (50 mM Tris pH 8.0; 400 mM NaCl) before protein was eluted with 10 mL 50 mM glutathione elution buffer, pH 8.0. […]

[3] = system: HUVEC; assay: HUVEC cell branching assay on Matrigel; assay type: cell-based, human; details: 0-40 μM, 18-20 hours, p<0.05
Protocol: HUVEC cell branching assays. For branching assays, 350 μL of Matrigel was loaded into each well of a 24-well plate on ice and incubate the plate for 30 minutes at 37° C. to allow the Matrigel to solidify. 80,000 HUVECs in 0.5 mL of EGM-2 medium with the indicated AGX concentration was plated on the solidified Matrigel. At 18-20 hours of incubation when the tube formation was peaked, media from the well was carefully removed and fixed with 10% buffered formalin for 15 minutes. Each well was washed with DPBS. The morphology of capillary like structures was visualized using an inverted microscope and photographed with a digital camera at 10× magnification. To quantify the tube network, Image J with the Angiogenesis Analyzer plugin (public domain Java-based image-processing program, reference: Carpentier G. ImageJ contribution: Angiogenesis Analyzer. ImageJ News. 2012) was installed and the analysis for the number of nodes, junctions, meshes and total branching length was performed as per the instruction. The statistical data analyses were performed using the Wilcoxon test.

[4] = system: HCT116 cells; assay: HCT116 MTT viability, cell cycle and Cyclin D1; assay type: cell-based; details: HCT116, 40 μM
Protocol: Immunoblotting. For immunoblotting, cells were collected by trypsinization, washed with PBS and lysed in homogenization buffer (0.3 M sucrose, 10 mM Tris (pH 8.0), 400 mM sodium chloride, 3 mM magnesium chloride, 0.5% NP40/IGEPAL, 100 μg/mL Aprotinin+Protease inhibitor cocktail (Roche #11 836 153 001). Proteins were separated by SDS-PAGE, transferred to a membrane (LI-COR), probed with primary antibodies overnight at 4° C., and probed with secondary antibodies (LI-COR) for 1-2 hours at room temperature. Proteins were visualized using the LI-COR Odyssey Infrared Imaging detection system. The following primary antibodies were used Id1, Id2, Id3, Id4 (195-14, 9-2-8, 17-3, 82-12, respectively, all from Biocheck), Cyclin D1 (2978, Cell Signaling), Actin (A2066, Sigma), Tubulin (T4026, Sigma). Western blot quantification was carried out using channel 700 and channel 800 intensity data from Odyssey application software version 3.0.30 (LI-COR), subtracting blank values and normalizing to Tubulin.
Cell viability assays. Cell lines were seeded in a 96 well plate (5000 cells per well). After overnight incubation, cells were treated with AGX51 and incubated for 24 hours then MTT reagent (5 mg/mL) was added per well and the cells were incubated for four hours. Following incubation, media was aspirated and 200 μL DMSO was added per well. Absorbance was then measured at 570 nm using a plate reader (Synergy 2, BioTek). Cell growth profiles were determined by seeding 38,000 cells in a 24-well plate, in triplicate for each time point, and counting the cells on days 1, 3 and 5 after seeding, using trypan blue exclusion of dead cells.
Cell cycle analysis. […] For cell cycle analysis cells were centrifuged 1000 rpm for 5 minutes, washed with 1×PBS and then resuspended in 0.5 mL PI/RNase staining buffer (550825, BD Biosciences), incubated for 15 minutes at room temperature and analyzed by flow cytometry (LSR II).

T1 sequence (P41133 whole entry): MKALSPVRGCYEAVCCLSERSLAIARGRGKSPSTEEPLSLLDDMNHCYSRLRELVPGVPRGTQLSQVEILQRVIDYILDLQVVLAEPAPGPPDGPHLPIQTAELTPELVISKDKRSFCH

In the case of `CCC(=O)N(CCC(c1ccc2c(c1)OCO2)c1ccccc1OC)Cc1ccccc1` (racemic) [AGX51, N-(3-(benzo[d][1,3]dioxol-5-yl)-3-(2-methoxyphenyl)propyl)-N-benzylpropionamide], the lung metastases [1] is reported as “profoundly diminish lung metastases”, the “effect on Id3 secondary structure (CD)” value [2] is reported as “small but reproducible effect” and the “vascular branching (nodes, junctions, meshes, branch length)” value [3] is reported as “significantly impaired in a dose-dependent manner”. For the same compound, the “Cyclin D1 levels” value ([4]; 0-48 hours) was “reduction in Cyclin D1 levels”, the cell cycle ([4]; 4-24 hours) was “G0/G1 growth arrest” and the cell viability ([4]; 24 hours) was “reduced cell viability”.
